According to publication PMC5608406, “In vivo activation of latent HIV with a synthetic bryostatin analog effects both latent cell "kick" and "kill" in strategy for virus eradication” (PLoS Pathogens, 2017):

Key:
[1] = tested on: primary CD4+ T cells; test: Induction of CD69 expression in primary CD4+ T cells; assay type: cell-based, human; details: 24h
Procedure: Primary human cells from HIV seronegative individuals were cultured in “RF10 medium” consisting of RPMI 1640 medium supplemented with 10% fetal bovine serum (FBS, Omega Scientific), 100 U/mL of penicillin, and 100 μg/mL of streptomycin (Invitrogen). PBMCs were isolated using Ficoll-Paque Plus separation (GE Healthcare). Primary CD4+ T cells were separated from PBMCs by negative immunomagnetic selection using the CD4+ T cell Isolation Kit (Miltenyi Biotec) according to the manufacturer’s instructions. Cells were then exposed to compound for 24 hours before staining and flow cytometric analysis of CD69 levels. Compound incubations were performed by seeding 10^5 cells/well in 100 μL of RF10 media containing the appropriate concentration of compound in wells of a v-bottomed 96-well plate. Bryostatin 1 (Tocris bioscience) and Prostratin (LC Laboratories) were obtained commercially, and bryologs or prostratin analogs were synthesized as previously described.
For human PBMC CD69 induction experiments, cells were stained with CD69-ECD (Beckman Coulter 6607110). During staining, cells were incubated at 4 °C for 20 minutes, washed with 2% FBS in PBS, and then resuspended in 2% paraformaldehyde. Stained samples were stored at 4 °C.
Flow cytometry samples were analyzed using a Cytomics FC 500 (Beckman Coulter) or a LSR Fortessa (BD Biosciences) flow cytometer. Data were analyzed using FlowJo (v7) software.

[2] = tested on: murine splenocytes; test: In vivo bioactivity (CD69/CD25 in splenocytes) in C57/bl6 mice; details: intraperitoneal injection, 24h post-injection, maximum over ascending doses
Procedure: C57/bl6 mice were obtained from the UCLA Department of Radiation Oncology. Compounds were suspended in DMSO and then further diluted in RF10 media to produce a final volume of 500 μL (containing a maximum 4% DMSO). These 500 μL volumes were administered to mice by intraperitoneal injection. Mice were monitored for acute toxicities and then sacrificed at the indicated times. Spleens were removed and disaggregated using a steel mesh, and then filtered through a 40 μm filter to produce a single-cell suspension. The resultant splenocytes were then stained for flow cytometry to analyze surface expression of relevant markers.
During standard flow cytometry staining, samples of 10^5 cells were suspended in 50 μL of a 1:1 dilution of phosphate buffered saline (PBS):Human AB serum (Sigma). Staining of C57/bl6 mouse splenocytes was performed by adding the following anti-mouse fluorescent conjugated antibodies: CD3-Fluorescein isothiocyanate (FITC, eBioscience 11-0032-82); CD69-Phycoerythrin (PE, eBioscience 12-0691-83); and CD4-Allophycocyanin (APC, eBioscience 17-0041-83). In some experiments CD4-APC was replaced with CD25-APC (eBioscience 17-0251-82) and CD4-Phycoerythrin Cyanin 7 (PC7, eBioscience 25-0041-82). For humanized mouse studies, PBMC and splenocytes from BLT mice were stained with anti-mouse CD45-Alexa 700 (Biolegend 103128) and the following anti-human antibodies: CD45-e450 (eBioscience 48-0459-42); CD3-APC-780 (eBioscience; 47-0038-42); CD4-V500 (BD biosciences; 560768); CD8-Peridinin chlorophyll protein (PerCP)-710 (eBioscience 46-0087-42); CD25-PE (Beckman IM0479U); CD69-APC (Biolegend 310910); CD14-PE-Cy7 (Biolegend 325618). Cells were separately stained for anti-human CD45 e450- (eBioscience 48-0459-42) and anti-HA-Biotin PE (Roche 12158167001) followed by a secondary Streptavidin, R-Phycoerythrin Conjugate (Invitrogen s866) stain. This two-step stain was performed by incubating 1-2x10^6 cells at 4°C for 20–30 min, washing with 2% FBS in PBS, then adding the secondary stain, incubating again at 4°C for 20–30 min, and washing with 2% FBS in PBS before fixation with 2% paraformaldehyde. In some experiments, cell death was also evaluated by GHOST Red 780 (Tonbo Biosciences 13–0865) or Zombie Yellow (Biolegend 423104) stains. For this procedure, 10^6 cells were suspended in 100 μL PBS, and then the Zombie yellow and GHOST Red 780 dyes added. Cells were incubated for 20 min at room temperature in the dark and then washed twice with 2% FBS in PBS. Cells were then fixed with 2% paraformaldehyde and incubated for 20 min in the dark. In some experiments cells were then washed with 2% FBS in PBS, resuspended in 1:1 PBS:Human AB serum and then stained for human CD45 and HA, CD3-PE-Cy5 (Biolegend 300310), CD4-ECD (Beckman 6604727), CD8 Per-CO710 (eBioscience 46-0087-42) and CD3-APC (Cell signaling 9602S) as described above.

[3] = phase I, ART-treated patients; cited from earlier work

Structure (SMILES)	CD69 expression [1]	CD4+ splenocytes expressing CD69 [2]	safety in patients [3]
CC(=O)O[C@@]12C[C@@H](C)[C@@]3(O)[C@@H](C=C(CO)C[C@]4(O)C(=O)C(C)=C[C@@H]34)[C@@H]1C2(C)C [Prostratin]	can each induce expression	–	–
CCC/C=C/C=C/C(=O)O[C@H]1/C(=C/C(=O)OC)C[C@H]2C[C@H]([C@@H](C)O)OC(=O)C[C@H](O)C[C@@H]3C[C@H](OC(C)=O)C(C)(C)[C@](O)(C[C@@H]4C/C(=C/C(=O)OC)C[C@H](/C=C/C(C)(C)[C@]1(O)O2)O4)O3 [bryostatin 1]	can each induce expression	approximately 60%	safe at low doses
